Assay results taken from patent US20210290606A1, “METHOD TO PREVENT AND TREAT OSTEOARTHRITIS BY CALCIUM CHANNEL BLOCKERS, ANGIOTENSIN CONVERTING ENZYME INHIBITORS, AND ANGIOTENSIN RECEPTOR BLOCKERS” (priority 2018, published 2021).
Read-outs that look alike come from different tables or passages of the source.

Legend:
osteoarthritis [1] = conditions: cited from earlier work; for clinical difference between the high potency narcotics and tramadol: human, in vivo
osteoarthritis [2] = conditions: 6 trials, 1501 participants, cited from earlier work
[3] = system: osteoarthritis syndrome in both knees; assay: Composition given by intra-articular injection in one knee, other knee left untreated; type: in vivo, human; conditions: patient
Method: A patient is diagnosed with osteoarthritis syndrome in both knees. […] A patient is diagnosed with osteoarthritis syndrome in both knees. A composition comprising the ACE inhibitor enalapril is administered by intra-articular injection in one knee while the other knee is left untreated. […] A patient is diagnosed with osteoarthritis syndrome in both knees. A composition comprising the angiotensin receptor blocker losartan is administered by intra-articular injection in one knee while the other knee is left untreated.

[4] = system: osteoarthritis syndrome in both knees; assay: Composition applied to the skin in the region of one knee, other knee left untreated; type: in vivo, human; conditions: patient, topical application to skin in the region of one knee
Excerpt: A patient is diagnosed with osteoarthritis syndrome in both knees.
A patient is diagnosed with osteoarthritis syndrome in both knees. A composition comprising the ACE inhibitor enalapril is directly applied to the skin in the region of one knee while the other knee is left untreated.
A patient is diagnosed with osteoarthritis syndrome in both knees. A composition comprising the angiotensin receptor blocker losartan is directly applied to the skin in the region of one knee while the other knee is left untreated.

Compound: CC(=O)Nc1ccc(O)cc1 [Tylenol]
- clinical effect (osteoarthritis [1]; meta-analysis of 74 randomized clinical trials, 58556 patients): did not have a clinically relevant effect

Compound: CN1CC[C@]23c4c5ccc(O)c4O[C@H]2[C@@H](O)C=C[C@H]3[C@H]1C5 [morphine]
- clinical difference between the high potency narcotics and tramadol (osteoarthritis [1]): no clinically observable difference

Compound: N[C@H]1C(O)O[C@H](CO)[C@@H](O)[C@@H]1O.O=S(=O)(O)O (stereo partly shown) [glucosamine sulfate]
- preventive effect on osteoarthritis (osteoarthritis [2]; after 3 years, benefit clinically irrelevant): small statistical effect
- preventive effect on osteoarthritis (osteoarthritis [2]; after one year): no preventive effect
- pain and function (osteoarthritis [1]; industry-sponsored study of 604 patients): statistical significant reduction in pain and increase in function
- effect versus placebo (osteoarthritis [1]; meta-analysis of 25 randomized placebo controlled clinical trials, 3458 patients): failed to find any significant effects

Compound: chondroitin sulfate
- effect on pain and function (osteoarthritis [1]; meta-analysis of 20 randomized clinical studies, 3846 patients, called negligible): 0.003%

Compound: COc1ccc2c3c1O[C@H]1C(=O)CC[C@@]4(O)[C@@H](C2)N(C)CC[C@]314 [oxycodone]
- clinical difference between the high potency narcotics and tramadol (osteoarthritis [1]): no clinically observable difference

Compound: CCCCc1nc(Cl)c(CO)n1Cc1ccc(-c2ccccc2-c2nn[nH]n2)cc1 [losartan]
- symptoms of osteoarthritis syndrome, treated knee versus untreated knee [3]: reduced symptoms of osteoarthritis syndrome
- symptoms of osteoarthritis syndrome, treated knee versus untreated knee [4]: reduced symptoms of osteoarthritis syndrome

Compound: COc1cccc(C2(O)CCCCC2CN(C)C)c1 (stereo not shown) [tramadol]
- clinical difference between the high potency narcotics and tramadol (osteoarthritis [1]): no clinically observable difference

Compound: CCOC(=O)[C@H](CCc1ccccc1)N[C@@H](C)C(=O)N1CCC[C@H]1C(=O)O [enalapril]
- symptoms of osteoarthritis syndrome, treated knee versus untreated knee [3]: reduced symptoms of osteoarthritis syndrome
- symptoms of osteoarthritis syndrome, treated knee versus untreated knee [4]: reduced symptoms of osteoarthritis syndrome
